# Data as given in US7115600B2, “Histamine-3 receptor modulators” (Pfizer Inc., priority 2004, dated 2006).
# Target: T1, rat histamine H3 receptors (Rattus norvegicus, UniProt Q9QYN8)
# T1 construct: Frozen rat frontal brain or frozen human post-mortem frontal brain is homogenized; from tissue; host or cells: rat frontal brain membranes
# Experiment: Rat Histamine H3 Receptor Binding
# Conditions: frozen rat frontal brain membranes; radioligand 1 nM 3H-N-methyl-histamine; 1 hour incubation; read-out: rH3 Ki
# T1 sequence (Q9QYN8 whole entry): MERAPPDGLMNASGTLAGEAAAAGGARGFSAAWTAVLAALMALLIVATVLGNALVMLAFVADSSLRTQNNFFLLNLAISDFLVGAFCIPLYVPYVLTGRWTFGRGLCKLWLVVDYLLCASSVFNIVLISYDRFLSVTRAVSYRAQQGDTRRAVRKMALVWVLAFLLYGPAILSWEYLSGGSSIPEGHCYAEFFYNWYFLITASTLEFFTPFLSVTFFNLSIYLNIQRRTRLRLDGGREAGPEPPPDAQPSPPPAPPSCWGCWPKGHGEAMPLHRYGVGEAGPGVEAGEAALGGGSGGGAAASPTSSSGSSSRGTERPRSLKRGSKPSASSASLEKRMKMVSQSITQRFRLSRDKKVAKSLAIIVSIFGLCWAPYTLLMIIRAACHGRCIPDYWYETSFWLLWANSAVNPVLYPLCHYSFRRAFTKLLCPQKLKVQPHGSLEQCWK
row,SMILES,Ki [nM]
1,"c1cnc(OCC2CC(c3ccc(CN4CCCC4)cc3)C2)cn1 (stereo not drawn) [Example 40, 2-[3-(4-Pyrrolidin-1-ylmethyl-phenyl)-cyclobutylmethoxy]-pyrazine]",74.3
2,"COc1ccc(OCC2CC(c3ccc(CN4CCCC4)cc3)C2)nn1 (stereo not drawn) [Example 44, 3-Methoxy-6-[3-(4-pyrrolidin-1-ylmethyl-phenyl)-cyclobutylmethoxy]-pyridazine]",44.4
3,"COc1cc(OCC2CC(c3ccc(CN4CCCC4)cc3)C2)nc(OC)n1 (stereo not drawn) [Example 46, 2,4-Dimethoxy-6-[3-(4-pyrrolidin-1-ylmethyl-phenyl)-cyclobutylmethoxy]-pyrimidine]",104
4,"c1ccc(OCC2CC(c3ccc(CN4CCCC4)cc3)C2)nc1 (stereo not drawn) [Example 42, 2-[3-(4-Pyrrolidin-1-ylmethyl-phenyl)-cyclobutylmethoxy]-pyridine]",131
5,"Cc1cnc(C)c(OCC2CC(c3ccc(CN4CCCC4)cc3)C2)n1 (stereo not drawn) [Example 41, 2,5-Dimethyl-3-[3-(4-pyrrolidin-1-ylmethyl-phenyl)-cyclobutylmethoxy]-pyrazine]",32
6,"Cc1cc(C)nc(OC[C@H]2C[C@H](c3ccc(CN4CCCC4)cc3)C2)n1 [Example 55, trans-4,6-Dimethyl-2-[3-(4-pyrrolidin-1-ylmethyl-phenyl)-cyclobutylmethoxy]-pyrimidine]",92.6
7,"OC1(c2ccc(CN3CCCC3)cc2)CC(COCc2ccccc2)C1 (stereo not drawn) [Example 1, 3-Benzyloxymethyl-1-(4-pyrrolidin-1-ylmethyl-phenyl)-cyclobutanol]",8.34

# Further lines, results first:
row,Ki [nM],SMILES
1,6.84,"C[C@@H]1CC[C@@H](C)N1C[C@H]1C[C@H](c2ccc(CN3CCCC3)cc2)C1 [Example 123, trans-(2R,5R)-2,5-Dimethyl-1-[3-(4-pyrrolidin-1-ylmethyl-phenyl)-cyclobutylmethyl]-pyrrolidine]"
2,1.89,"FC(F)(F)c1cc(-c2ccccc2)nc(OC[C@H]2C[C@@H](c3ccc(CN4CCCC4)cc3)C2)n1 [Example 76, cis-4-Phenyl-2-{[3-(4-pyrrolidin-1-ylmethyl-phenyl)-cyclobutylmethyl]oxy}-6-trifluoromethyl-pyrimidine]"
3,1.77,"c1ccc2c(c1)CN(C[C@H]1C[C@H](c3ccc(CN4CCCC4)cc3)C1)C2 [Example 125, trans-2-[3-(4-Pyrrolidin-1-ylmethyl-phenyl)-cyclobutylmethyl]-2,3-dihydro-1H-isoindole]"
4,2.55,"c1ccc(C2CCCN2C[C@H]2C[C@H](c3ccc(CN4CCCC4)cc3)C2)nc1 (relative stereo) [Example 109, trans-2-{1-[3-(4-Pyrrolidin-1-ylmethyl-phenyl)-cyclobutylmethyl]-pyrrolidin-2-yl}-pyridine]"
5,0.48,"CC1CC(C)CN(C[C@H]2C[C@H](c3ccc(CN4CCCC4)cc3)C2)C1 (stereo partly drawn) [Example 114, trans-3,5-Dimethyl-1-[3-(4-pyrrolidin-1-ylmethyl-phenyl)-cyclobutylmethyl]-piperidine]"
6,0.49,CCCN(CC1CC1)C[C@H]1C[C@H](c2ccc(CN3CCCC3)cc2)C1 [Example 124]
7,8.91,"COC[C@@H]1CCCN1C[C@H]1C[C@H](c2ccc(CN3CCCC3)cc2)C1 [Example 128, trans-(S)-2-Methoxymethyl-1-[3-(4-pyrrolidin-1-ylmethyl-phenyl)-cyclobutylmethyl]-pyrrolidine]"
8,12.5,"Fc1cnc(OCC2CC(c3ccc(CN4CCCC4)cc3)C2)nc1C1CCNCC1 (stereo not drawn) [Example 74, 5-Fluoro-4-piperidin-4-yl-2-[3-(4-pyrrolidin-1-ylmethyl-phenyl)-cyclobutylmethoxy]-pyrimidine]"
